Measurements as given in US20100247564A1, “METHODS AND COMPOSITIONS FOR THE USE OF SARGASSUM FUSIFORME FOR THE INHIBITION OF HIV-1 INFECTION” (priority 2007, published 2010).
“Also recorded” adds a separate entry of the source. Where two headings read alike, the source gives them in different places.

What was measured:
uninfected PBMCs = assay: Toxicity (LD50) on uninfected PBMCs; type: cell-based, human
BlaM-Vpr-X4-tropic NL4-3 = assay: microbe, parasite or virus in culture; type: cell-based, HIV-1; conditions: for virus-positive cells: 37.6% untreated
ectocervix tissue = assay: Ectocervix tissue viability, MTT assay; type: cell-based, human; conditions: day 10 after infection, PA-treated compared to untreated tissue
NL4-3 = assay: MAGI cell assay with sCD4; type: cell-based, HIV-1; conditions: increasing concentrations of PA with 200 nM sCD4
[1] = test system: R5-tropic primary isolate ADA
X4-tropic NL4-3 [2] = assay: GHOST X4/R5 cell infection with X4-tropic NL4-3, flow cytometry; type: cell-based, HIV-1; conditions: for infected cells: 20% at 0 μM
R5-tropic 81A = assay: GHOST X4/R5 cell infection with R5-tropic 81A, flow cytometry; type: cell-based, HIV-1; conditions: for infected cells: 52.5% at 0 μM
uninfected macrophages = assay: Toxicity (LD50) on uninfected macrophages; type: cell-based, human
X4-tropic NL4-3 [3] = test system: X4-tropic NL4-3
sCD4 [4] = molecular target: T1, sCD4 (Homo sapiens, UniProt P01730); assay: sCD4 tryptophan fluorescence titration; type: binding
T1 construct: soluble CD4 (sCD4) protein; purchased Progenics Pharmaceuticals
Description: The tryptophan fluorescence of sCD4 was used to estimate binding affinity of PA to sCD4. Measurements were performed on a Fluorolog-3 fluorescence spectrophotometer (Horiba Jobin Yvon) at 25° in a 1-ml stirred cuvette. For fluorescence titration experiments, 2 μM of sCD4 (Progenics Pharmaceuticals) dissolved in the NMR buffer was used, and a 1 mM solution of PA dissolved in the NMR buffer was added in 1 μM steps. Titrations in the absence of sCD4 were performed as a reference. Tryptophan fluorescence was measured using an excitation wavelength of 290 nm. The fluorescence emission signal was subtracted from the signal of the reference titrations, and the differences adjusted by the dilution factor were plotted against the final concentration of added PA. Curve fitting (OriginLab) was performed to find the best values for the Kd using a single-site binding isotherm approximation.

[5] = test system: cell fusion (anti-HIV activity); assay: Inhibition of cell fusion by individual fatty acids; type: cell-based; conditions: Human immunodeficiency virus 1, read-out: percentage of inhibition of cell fusion
Description: Anti-HIV activity of the individual fatty acids was tested at four different concentrations. The values given in Table 1 represent the percentage of inhibition of cell fusion in the presence of each fatty acid.

sCD4 [6] = molecular target: T1, sCD4; assay: Saturation transfer difference NMR (STD-NMR) binding to sCD4; conditions: NMR buffer with 20% d6-DMSO, room temperature
Description: FIGS. 15A-E show in vitro binding experiments of sCD4 with PA. FIG. 15A is a homonuclear NMR spectrum of 100 μM PA in the NMR buffer (10 mM KPO4 buffer, pH 7.0, 20% d6-DMSO, and 80% D2O). […] Tryptophan fluorescence was measured using an excitation wavelength of 280 nm. An increase of PA causes a red shift of 2 nm and quenching of the tryptophan fluorescence of sCD4.
We used a one-dimensional saturation transfer difference NMR (STD-NMR) experiment to characterize the binding of PA to sCD4 in vitro. […]
To perform the STD-NMR experiment, we used commercially available sCD4 (200 μg, 4.4 nmol, Progenics Pharmaceuticals), which was exchanged into the NMR buffer (160 μl of D2O and 40 μl d6-DMSO, containing 10 mM KPO4 buffer, pH 7.0). […] The NMR data were processed and analyzed using Topspin 2.0 (Bruker).
During the STD-NMR experiment, we titrated increasing concentrations of PA into sCD4 solution, and observed PA binding to sCD4, as shown by an increase in the intensity of the ligand STD-NMR signal (FIGS. 15A and 15B). The intensity of the STD signal was quantified by calculating the difference between the intensity of one signal in the off-resonance NMR spectrum, or reference NMR spectrum (I0), and the intensity of a signal in the on-resonance NMR spectrum (Isat) for various concentrations of the ligand (FIG. 15C). […]

HIV-1 R5 BaL = assay: HIV-1 BaL infection of human ectocervix tissue ex vivo, p24 ELISA; conditions: for HIV-1 replication (p24): 100 μM PA; for HIV-1 infection reduced: 200 μM PA; for inhibition at 100 µM: Human immunodeficiency virus 1, BAL, in Homo sapiens, read-out: inhibition of HIV-1 infection
Description: Ectocervix tissue samples from premenopausal women were directly cultured in a non-polarized manner in 48-well plates in 300 μl/well DMEM/F 12 media for 10 days. […] Tissue was washed 3 times and returned to culture with each respective treatment for the duration of the experiment. At the indicated time points, HIV-1 replication was tested by p24 ELISA, and a two-tailed Student's t-test with p<0.05 was used to calculate statistical significance.
Ectocervix tissue samples (3-mm^3 biopsy) from premenopausal women with conditions not involving cervix were obtained in accordance with AMC approved Institutional Review Board (IRB) protocol, and were processed within 1-3 hours after surgery. Tissue was cultured in a non-polarized manner in 48-well plates in 300 μl/well DMEM/F12 media (Invitrogen) supplemented with 10% FBS for the duration of the experiment. Tissue was treated with the indicated concentrations of PA and infected with HIV-1 R5 BaL at 0.3 MOI.
Before infection, cells or cervix tissue were incubated for the indicated time in culture media with different concentrations of either PA. Cells or tissue were then washed 3 times with HBSS (Invitrogen), and infected with HIV-1 at the indicated MOI. Infected cells or tissue were washed 3 times, and returned to culture with the same concentration of each treatment for the duration of experiment. Infection was monitored in cell-free supernatants by HIV-1 p24 core antigen content accumulation by enzyme-linked immunosorbent assay (ELISA) using an HIV-1 Ag kit, as specified by the manufacturer.

[7] = Human immunodeficiency virus 1, NL43, SUP-T1, read-out: inhibition of HIV-1 fusion
[8] = Human immunodeficiency virus 1, read-out: inhibition of infection (R5)
[9] = saturating concentrations of PA

## CCCCCCCCCCCCCCCC(=O)O [PA, palmitic acid]
Uninfected PBMCs
  mean toxicity lethal dose (LD50): ≈ 154 μM
BlaM-Vpr-X4-tropic NL4-3; 2 μM PA
  virus-positive cells: 24.6%
BlaM-Vpr-X4-tropic NL4-3; 4 μM PA
  virus-positive cells: 19.7%
BlaM-Vpr-X4-tropic NL4-3; 8 μM PA
  virus-positive cells: 14.4%
BlaM-Vpr-X4-tropic NL4-3; [7]
  inhibition at 2 µM: 34.6%
  inhibition at 4 µM: 47.8%
  inhibition at 8 µM: 61.6%
Ectocervix tissue
  tissue toxicity (MTT viability assay): not toxic to tissue; also recorded: absence of toxicity
NL4-3
  reversal of sCD4 inhibition of infection: completely reversed
[1]; Human immunodeficiency virus 1, Macrophage
  IC50: ~37 µM
[1]; up to 100 μM PA, day 10 (peak of replication)
  inhibition of primary isolate ADA infection: 91%
X4-tropic NL4-3 [2]; 10 μM PA
  infected cells: 17.46%
X4-tropic NL4-3 [2]; 20 μM PA
  infected cells: 15.25%
X4-tropic NL4-3 [2]; 40 μM PA
  infected cells: 12.03%
X4-tropic NL4-3 [2]; 60 μM PA
  infected cells: 9.62%
X4-tropic NL4-3 [2]; 100 μM PA
  infected cells: 5.9%
X4-tropic NL4-3 [2]; Human immunodeficiency virus 1, NL43, read-out: mean inhibitory concentration (IC50) for X4 inhibition
  IC50: ~56 µM
X4-tropic NL4-3 [2]; Human immunodeficiency virus 1, NL43, 10 μM PA
  inhibition at 10 µM: 13%
X4-tropic NL4-3 [2]; Human immunodeficiency virus 1, NL43, 20 μM PA
  inhibition at 20 µM: 24%
X4-tropic NL4-3 [2]; Human immunodeficiency virus 1, NL43, 40 μM PA
  inhibition at 40 µM: 40%
X4-tropic NL4-3 [2]; Human immunodeficiency virus 1, NL43, 60 μM PA
  inhibition at 60 µM: 52%
X4-tropic NL4-3 [2]; Human immunodeficiency virus 1, NL43, 100 μM PA
  inhibition at 100 µM: 70%
R5-tropic 81A; 10 μM PA
  infected cells: 44.77%
R5-tropic 81A; 20 μM PA
  infected cells: 36.06%
R5-tropic 81A; 40 μM PA
  infected cells: 29.88%
R5-tropic 81A; 60 μM PA
  infected cells: 22.88%
R5-tropic 81A; 100 μM PA
  infected cells: 14.45%
R5-tropic 81A; [8]
  inhibition at 10 µM: 15%
  inhibition at 20 µM: 31%
  inhibition at 40 µM: 43%
  inhibition at 60 µM: 56%
  inhibition at 100 µM: 73%
R5-tropic 81A; Human immunodeficiency virus 1, read-out: mean inhibitory concentration (IC50) for R5 inhibition
  IC50: 51 µM
Uninfected macrophages
  LD50: 400 µM
X4-tropic NL4-3 [3]; Human immunodeficiency virus 1, NL43, PBMC, 144 h
  IC50: ~0.9 µM
X4-tropic NL4-3 [3]; up to 22 μM PA, day 6 (peak of infection)
  inhibition of virus replication: 95%
sCD4 [4]
  Kd: 1.5 ± 0.2 µM
sCD4 [4]; [9]
  quenching of the sCD4 tryptophan fluorescence: 30%
  red shift of the emission peak: 2 nm
[5]; 0.5 μg/ml
  inhibition at 0.5 µg/mL: 33.5%
[5]; 1 μg/ml
  inhibition at 1 µg/mL: 46.1%
[5]; 2 μg/ml
  inhibition at 2 µg/mL: 64.2%
[5]; 5 μg/ml
  inhibition at 5 µg/mL: 50.6%
sCD4 [6]
  STD-NMR signal on titration into sCD4 solution: binds to sCD4 specifically
HIV-1 R5 BaL; day 4, untreated 943
  HIV-1 replication (p24): 604 pg p24/ml
HIV-1 R5 BaL; day 7, untreated 1421
  HIV-1 replication (p24): 960 pg p24/ml
HIV-1 R5 BaL; day 10, untreated 785
  HIV-1 replication (p24): 452 pg p24/ml
HIV-1 R5 BaL; day 4
  HIV-1 infection reduced: 38%
HIV-1 R5 BaL; day 10
  HIV-1 infection reduced: 43%
HIV-1 R5 BaL; 96 h
  inhibition at 100 µM: 36%
HIV-1 R5 BaL; 168 h
  inhibition at 100 µM: 32%
HIV-1 R5 BaL; 240 h
  inhibition at 100 µM: 42%
